A word on the inhibition: it is the change of the read-out against control, counted positive when it falls. In general, IC50 refers to the point on the concentration scale where inhibition reaches its midpoint.

The source made the active and inactive calls. The rule behind the calls is not given here.

Our source for the Activity, inhibition and IC50 values is ChEMBL document CHEMBL2034967, “Lipophilic amines as potent inhibitors of N-acylethanolamine-hydrolyzing acid amidase” (Bioorg Med Chem, 2012).

Assay [1] addresses T1, N-acylethanolamine-hydrolyzing acid amidase (Rattus norvegicus) (UniProt Q5KTC7).
T1 sequence (whole entry): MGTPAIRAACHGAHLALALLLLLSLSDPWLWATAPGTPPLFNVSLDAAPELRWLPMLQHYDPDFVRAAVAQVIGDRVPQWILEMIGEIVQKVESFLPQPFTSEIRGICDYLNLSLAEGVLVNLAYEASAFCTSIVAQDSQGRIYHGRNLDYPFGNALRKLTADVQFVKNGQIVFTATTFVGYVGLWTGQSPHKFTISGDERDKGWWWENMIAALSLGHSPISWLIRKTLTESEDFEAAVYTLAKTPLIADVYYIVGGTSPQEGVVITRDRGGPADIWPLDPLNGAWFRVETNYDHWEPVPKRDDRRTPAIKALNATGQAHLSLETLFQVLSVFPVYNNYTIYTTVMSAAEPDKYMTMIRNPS
Description: Inhibition of Wistar/ST rat lung NAAA assessed as residual activity for conversion of [14C]PEA to [14C]palmitic acid at 100 uM after 20 mins relative to control.

Assay [2] addresses T1, N-acylethanolamine-hydrolyzing acid amidase (Rattus norvegicus). Put plainly: Inhibition of Wistar/ST rat lung NAAA assessed as conversion of [14C]PEA to [14C]palmitic acid at 100 uM after 20 mins.
For assay [3], the target named is T2, N-acylethanolamine-hydrolyzing acid amidase (Rattus norvegicus, UniProt Q5KTC7).
T2 sequence (Q5KTC7 whole entry): T1 sequence (whole entry)
Put plainly: Inhibition of Wistar/ST rat lung NAAA assessed as conversion of [14C]PEA to [14C]palmitic acid after 20 mins.

The target of assay [4] is T3, Fatty-acid amide hydrolase 1 (Rattus norvegicus) (UniProt P97612).
T3 sequence (whole entry): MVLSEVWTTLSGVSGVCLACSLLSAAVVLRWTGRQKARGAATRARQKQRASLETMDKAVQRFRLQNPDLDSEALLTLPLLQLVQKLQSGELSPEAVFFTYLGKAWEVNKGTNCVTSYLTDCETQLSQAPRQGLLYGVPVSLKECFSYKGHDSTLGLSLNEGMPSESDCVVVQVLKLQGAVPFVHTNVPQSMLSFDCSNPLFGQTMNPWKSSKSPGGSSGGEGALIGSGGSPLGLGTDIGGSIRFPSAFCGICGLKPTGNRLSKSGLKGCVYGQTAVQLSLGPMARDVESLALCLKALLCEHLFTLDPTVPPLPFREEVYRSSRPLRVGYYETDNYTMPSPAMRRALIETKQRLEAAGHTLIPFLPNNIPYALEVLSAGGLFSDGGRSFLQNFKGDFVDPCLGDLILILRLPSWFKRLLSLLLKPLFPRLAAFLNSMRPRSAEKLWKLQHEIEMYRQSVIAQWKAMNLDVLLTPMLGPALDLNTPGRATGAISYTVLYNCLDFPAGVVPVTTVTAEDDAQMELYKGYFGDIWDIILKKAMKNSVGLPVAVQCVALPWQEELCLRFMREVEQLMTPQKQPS
Put plainly: Inhibition of Wistar/ST rat liver FAAH assessed as conversion of [14C]PEA to [14C]palmitic acid at 100 uM at pH 5 after 20 mins.

Assay [5] concerns the target T3, Fatty-acid amide hydrolase 1 (Rattus norvegicus). Put plainly: Inhibition of Wistar/ST rat liver FAAH assessed as conversion of [14C]PEA to [14C]palmitic acid at 100 uM at pH 8.5 after 20 mins.
The target of assay [6] is T1, N-acylethanolamine-hydrolyzing acid amidase (Rattus norvegicus). Description: Competitive inhibition of Wistar/ST rat lung NAAA using [14C]PEA as substrate at 10 uM by Line-Weaver Burk plot analysis.
The target is the same in assay [7]. Put plainly: Competitive inhibition of Wistar/ST rat lung NAAA using [14C]PEA as substrate at 5 uM by Line-Weaver Burk plot analysis.

`CCCCCCCCCCCCCCOC(=O)CN`: the Activity in assay [1] worked out at 16%. On to `CCCCCCCCCCCCCCCC[N+](C)(C)C`, for which, in assay [2], the inhibition result was “Active”.

Regarding `CCCCCCCCCCCC(=O)OCCCN`, the Activity in assay [1] worked out at 63%. Turning to `CCCCCCCCCCCCCCCCN`, in assay [2], the inhibition result was “Active”.

As for `CCCCCCCCCCCCCCCOC(=O)CN`, the Activity in assay [1] came out at 42%.

Turning to `CCCCCCCCCCCCCOC(=O)CN`, in assay [3], the IC50 came out at 11.8 µM. In assay [4], the inhibition was 7%. Also, the inhibition result in assay [5] was “inactive”. The inhibition result in assay [6] is “Active”. Further, the Activity in assay [1] was 11%. Turning to `CCCCCCCCCCCCCCOCCCN`, in assay [1], the Activity came out at 71%. Still for that read-out and setting: next, `CCCCCCCCCCCC(=O)OCCN`: 74%; `CCCCCCCCCCCCCCOCCN`: 48%. Turning to `CCCCCCCCCCCCCC(=O)OCCN`, the Activity in assay [1] is 46%. For the compound `CCCCCCCCCCCCN`, the inhibition result in assay [2] is “Active”. Regarding `CCCCCCCCCCCCCCCCOCCCN`, in assay [1], the Activity is 84%.

For the compound `CCCCCCCCCC(=O)OCCCN`, the Activity in assay [1] came out at 55%. Regarding `CCCCCCCCCCCCOCCN`, the Activity in assay [1] stood at 40%. In the case of `CCCCCCCCCCCCCCCNC(=O)C1CCCCC1`, the inhibition entry in assay [2] is “inactive”. For the compound `CCCCCCCCCCCCCOC(=O)CCN`, the Activity in assay [1] worked out at 29%. The same measure, in the same setting: next, `CCCCCCCCCCCCCC(=O)OCCCN`: 46%; `CCCCCCCCCCCCOC(=O)CN`: 34%. Regarding `CCCCCCCCCCCCCCN`, the inhibition entry in assay [2] is “Active”.

Consider `CCCCCCCCCCCCCCCC(=O)OCCN`, for which the Activity in assay [1] came to 50%.

As to `CCCCCCCCCCCCCCCC(=O)NCC(=O)O`, in assay [2], the inhibition result was “inactive”. For the compound `CCCCCCCCCCCCCCCCOC(=O)CN`, the Activity in assay [1] amounted to 71%. Take `CCCCCCCCCCCCCCCCOCCN`: the Activity in assay [1] is 91%. On the same count and under the same terms, next, `CCCCCCCCCCCCOC(=O)CCN`: 51%; `CCCCCCCCCCCCCCCC(=O)OCCCN`: 48%. Regarding `CCCCCCCCCC(=O)OCCN`, the Activity in assay [1] was 89%. As for `CCCCCCCCCCCCCCCN` [PENTADECYLAMINE], the inhibition result in assay [2] and in assay [7] was “Active” each time. Further, the IC50 in assay [3] was 5.7 µM. The inhibition in assay [4] stood at 25%. Moreover, in assay [5], the inhibition result is “inactive”. Take `CCCCCCCCCCCCOCCCN`: the Activity in assay [1] was 73%. On the same count and under the same terms, next, `CCCCCCCCCCCCCCOC(=O)CCN`: 30%. As to `CCCCC/C=C\C/C=C\C/C=C\C/C=C\CCCC(=O)NCC(=O)O`, the inhibition entry in assay [2] was “inactive”.
